Assay results from US11045473B2, “Compositions and methods for therapy of prostate cancer using drug combinations to target polyamine biosynthesis and related pathways” (Health Research, Inc., priority 2015, dated 2021).

Legend:
[1] = tested on: LNG53 cells; test: Antiproliferative activity of MTDIA in LNCaP cells overexpressing SAT1 in Tet-off system; assay type: cell-based, human; conditions: (-) Tet conditions, Tet removed 24 hours prior to 96 hr MTDIA
Experimental: Tet was removed 24 hours prior to 96 hr treatment with MTDIA. […] Cells were pre-treated with BENSpm for 24 hours followed by 96 hr treatment with MTDIA.
We next analyzed whether the metabolic stress in CaP cells caused by high biosynthetic flux to maintain polyamine pools can be enhanced by increasing the activity of SAT1. We tested whether this could cause increased secretion of acetylated polyamines, putting intracellular pools in deficit, which should necessitate more biosynthesis, and should therefore potentiate any benefit of inhibiting the MSP. To conduct this analysis we used LNCaP cells that stably overexpress SAT1 in a Tet-off system (LNG53 cells, described in Kee, K., et al. J Biol Chem 279, 27050-27058 (2004)).

[2] = tested on: FaDu cells; test: IC50 of MTDIA for FaDu cells; assay type: cell-based; conditions: Homo sapiens, 144 h, 6 day treatment, 20 uM MTA
[3] = tested on: lung adenocarcinoma cell lines; conditions: 6 day treatment, 20 uM MTA added to the media; cited from earlier work
[4] = tested on: PC3; test: Proliferation / IC50 by trypan blue cell counts, PC3; assay type: cell-based, human; conditions: for IC50: Homo sapiens; for effect on cell growth: 8 and 12 days
Experimental: A transition state analog inhibitor of MTAP, Methylthio-DaDMe-Immucillin-A (MTDIA) was previously described and shown to be effective following a 6 or 12 day treatment at ˜10 and 100 nM MTDIA when 20 uM MTA was added to the media in both lung adenocarcinoma cell lines and head and neck squamous carcinoma cell lines, respectively [Basu I, et al. J Biol Chem. 2007; 282:21477-21486; Basu I, et al. J Biol Chem. 2011; 286:4902-491]. 32]. We synthesized MTDIA and the analytical data on the synthesized compound are shown in FIGS. 8A and 8B with the scheme used for synthesis shown in FIG. 6. […] In all three cell lines, the proliferation curves after 12 days of treatment show an IC50 of MTDIA>1 mM in the absence of MTA (FIG. 5B), but in the 10-100 nM range with the addition of 10 or 20 μM MTA. […] Nanomolar range IC50 values are highlighted.
IC50—The MTAP inhibitor (3R,4S)-1-[(9-Deaza-adenin-9-yl)methyl]-3-hydroxy-4-(methylthiomethyl)-pyrrolidine, or MT-DADMe-Immucillin-A (MTDIA) was synthesized following the synthesis scheme shown in FIG. 6 and based on a known approach. Cells were seeded at 125,000 cells/well (PC-3, DU145, LNCaP) in triplicate in 2 mLs of RPMI medium supplemented with 10% fetal bovine serum, and 1% penicillin streptomycin. After 24 hours the MTDIA and/or MTA was added at the indicated concentrations. Both medium and drug were refreshed every 48 hours. Every 96 hours the cells were trypsinized, ˜2% of cells were removed and counted by trypan blue exclusion and the rest were replated into a larger vessel.

For `CSC[C@H]1CN(Cc2c[nH]c3c(N)ncnc23)C[C@@H]1O` [MTDIA, (3R,4S)-1-[(9-Deaza-adenin-9-yl)methyl]-3-hydroxy-4-(methylthiomethyl)-pyrrolidine], which “sensitivity to MTDIA when SAT1 is overexpressed” value [1] is on record?
The value was “much more sensitive”.

What about the IC50 [2] of the same compound?
The IC50 was ~0.05 µM.

What about the effective concentration [3] of the same compound?
The effective concentration was ~10 nM.

What about the IC50 ([4]; PC-3, 96 h, PC3, 4 days, 0 μM MTA) of the same compound?
The IC50 was > 1000 µM.

What about the IC50 ([4]; PC-3, 96 h, PC3, 4 days, 10 μM MTA) of the same compound?
The IC50 was > 1000 µM.

What about the IC50 ([4]; PC-3, 96 h, PC3, 4 days, 20 μM MTA) of the same compound?
The IC50 was 300 µM.

What about the IC50 ([4]; PC-3, 192 h, PC3, 8 days, 0 μM MTA) of the same compound?
The IC50 was > 1000 µM.

And the IC50 ([4]; PC-3, 192 h, PC3, 8 days, 10 μM MTA)?
Its IC50 is 100 µM.

What about the IC50 ([4]; PC-3, 192 h, PC3, 8 days, 20 μM MTA) of the same compound?
The IC50 was 0.09 µM.

What about the IC50 ([4]; PC-3, 288 h, PC3, 12 days, 0 μM MTA) of the same compound?
Its IC50 is > 1000 µM.

And the IC50 ([4]; PC-3, 288 h, PC3, 12 days, 10 μM MTA)?
Its IC50 is 80 µM.

And the IC50 ([4]; PC-3, 288 h, PC3, 12 days, 20 μM MTA)?
The IC50 was 0.082 µM.

What about the IC50 ([4]; PC-3, 288 h, PC3, 12 days, with 10 or 20 μM MTA) of the same compound?
Its IC50 is 0.01 to 0.1 µM.

What about the “effect on cell growth” value ([4]; PC3, 100 nM MTDIA, with 20 μM MTA) of the same compound?
The value was “dramatic effect on cell growth”.

What about the “effect on cell growth” value ([4]; PC3, 100 nM MTDIA, without MTA) of the same compound?
Its value is “little to no effect”.

And the effect on growth ([4]; PC3, 100 nM MTDIA, 4 days, with or without 20 μM MTA)?
The effect on growth was “limited effects on growth”.

And the blocking cell growth ([4]; PC3, 6 days, low concentrations of MTDIA)?
The blocking cell growth was “no effect at blocking cell growth”.
